Results reported in the supplement of paper PMC8671470.

System: HL-60
Experiment: area under dose-response curve (viability, 1 nM-10 uM) (fraction (0-1)); higher = more sensitive
Conditions: 72 h; co-treatment: DMSO vehicle
Summary of the method: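 Area under the curve, where listed, was derived from four-parameter log-logistic fits with drc and PharmacoGx. These fits used CellTiter-Glo viability from HL-60 cells in RPMI 1640 with 10% FBS, normalised to DMSO wells and wells holding 10 μM proteasome inhibitor. The full library was rescreened on 384-well plates in duplicate at five tenfold concentrations, 1–10,000 nM, with DMSO or 100 nM of one of three metabolic inhibitors, for 72 h at 37 °C, 5% CO2.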

Structure (SMILES)	area under dose-response curve
O=C(Cc1cccc(OC(F)(F)F)c1)Nc1ccc(CCCCc2nnc(NC(=O)Cc3ccccn3)s2)nn1 [CB-839]	< 0.0301
O=NN(CCCl)C(=O)NCCCl [Carmustine]	< 0.0301
O[C@H]1[C@H](O)[C@@H](O)CN2CC[C@H](O)[C@H]12 [Castanospermine]	< 0.0301
O=C(/C=C/c1cccnc1)NCCCCC1CCN(C(=O)c2ccccc2)CC1 [Daporinad]	0.78
N=C(N)c1ccc(N=NNc2ccc(C(=N)N)cc2)cc1 [Diminazene]	< 0.0301
OCCN(CCO)c1nc(N2CCCCC2)c2nc(N(CCO)CCO)nc(N3CCCCC3)c2n1 [Dipyridamole]	< 0.0301
Cc1cc(O)c2c(c1)C(=O)c1cc(O)cc(O)c1C2=O [Emodin]	< 0.0301
N#Cc1ccc(C2CCCc3cncn32)cc1 (stereo not given) [Fadrozole]	< 0.0301
Cc1nc(-c2ccc(OCC(C)C)c(C#N)c2)sc1C(=O)O [Febuxostat]	< 0.0301

Same assay, conditions: 72 h; co-treatment: GSK2194069 100 nM

Structure (SMILES)	area under dose-response curve
CN(C)CCNC(=O)c1cccn2c(=O)c3cc4ccccc4cc3nc12 [Bmh-21]	0.0524
C=C1C(=O)O[C@H](CCCCCCCC)[C@H]1C(=O)O [C75]	< 0.0301
O=C(Cc1cccc(OC(F)(F)F)c1)Nc1ccc(CCCCc2nnc(NC(=O)Cc3ccccn3)s2)nn1 [CB-839]	0.0569
O=NN(CCCl)C(=O)NCCCl [Carmustine]	< 0.0301
O[C@H]1[C@H](O)[C@@H](O)CN2CC[C@H](O)[C@H]12 [Castanospermine]	< 0.0301
O=C(/C=C/c1cccnc1)NCCCCC1CCN(C(=O)c2ccccc2)CC1 [Daporinad]	0.79
N=C(N)c1ccc(N=NNc2ccc(C(=N)N)cc2)cc1 [Diminazene]	< 0.0301
Cc1cc(O)c2c(c1)C(=O)c1cc(O)cc(O)c1C2=O [Emodin]	< 0.0301
N#Cc1ccc(C2CCCc3cncn32)cc1 (stereo not given) [Fadrozole]	< 0.0301
Cc1nc(-c2ccc(OCC(C)C)c(C#N)c2)sc1C(=O)O [Febuxostat]	< 0.0301

Same assay, conditions: 72 h; co-treatment: pictilisib 100 nM

Structure (SMILES)	area under dose-response curve
C=C1C(=O)O[C@H](CCCCCCCC)[C@H]1C(=O)O [C75]	< 0.0301
O=C(Cc1cccc(OC(F)(F)F)c1)Nc1ccc(CCCCc2nnc(NC(=O)Cc3ccccn3)s2)nn1 [CB-839]	0.0991
O=NN(CCCl)C(=O)NCCCl [Carmustine]	< 0.0301
O[C@H]1[C@H](O)[C@@H](O)CN2CC[C@H](O)[C@H]12 [Castanospermine]	< 0.0301
O=C(/C=C/c1cccnc1)NCCCCC1CCN(C(=O)c2ccccc2)CC1 [Daporinad]	0.75
N=C(N)c1ccc(N=NNc2ccc(C(=N)N)cc2)cc1 [Diminazene]	< 0.0301
OCCN(CCO)c1nc(N2CCCCC2)c2nc(N(CCO)CCO)nc(N3CCCCC3)c2n1 [Dipyridamole]	< 0.0301
Cc1cc(O)c2c(c1)C(=O)c1cc(O)cc(O)c1C2=O [Emodin]	< 0.0301
N#Cc1ccc(C2CCCc3cncn32)cc1 (stereo not given) [Fadrozole]	< 0.0301
Cc1nc(-c2ccc(OCC(C)C)c(C#N)c2)sc1C(=O)O [Febuxostat]	0.0462

System: THP-1
Experiment: not given
Conditions: 72 h
Summary of the method: (§1)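 Fifteen myeloid leukaemia lines were incubated for 72 h at 37 °C with 5% CO2 across five tenfold doses from 1 to 10,000 nM, in duplicate. ATP luminescence was normalised to vehicle and to a positive control at 10 µM and fitted with a four-parameter log-logistic model. The IC50 came from these dose–response fits.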

Structure (SMILES)	IC50 (cell viability)
CN(C)CCNC(=O)c1cccn2c(=O)c3cc4ccccc4cc3nc12 [Bmh-21]	0.91 µM
C=C1C(=O)O[C@H](CCCCCCCC)[C@H]1C(=O)O [C75]	> 10 µM
O=C(Cc1cccc(OC(F)(F)F)c1)Nc1ccc(CCCCc2nnc(NC(=O)Cc3ccccn3)s2)nn1 [CB-839]	> 10 µM
O=NN(CCCl)C(=O)NCCCl [Carmustine]	> 10 µM
O[C@H]1[C@H](O)[C@@H](O)CN2CC[C@H](O)[C@H]12 [Castanospermine]	> 10 µM
O=C(/C=C/c1cccnc1)NCCCCC1CCN(C(=O)c2ccccc2)CC1 [Daporinad]	> 10 µM
N=C(N)c1ccc(N=NNc2ccc(C(=N)N)cc2)cc1 [Diminazene]	> 10 µM
OCCN(CCO)c1nc(N2CCCCC2)c2nc(N(CCO)CCO)nc(N3CCCCC3)c2n1 [Dipyridamole]	> 10 µM
Cc1cc(O)c2c(c1)C(=O)c1cc(O)cc(O)c1C2=O [Emodin]	> 10 µM
N#Cc1ccc(C2CCCc3cncn32)cc1 (stereo not given) [Fadrozole]	> 10 µM
Cc1nc(-c2ccc(OCC(C)C)c(C#N)c2)sc1C(=O)O [Febuxostat]	> 10 µM

System: HL-60
Experiment: not given
Conditions: 72 h
Summary of the method: as §1

Structure (SMILES)	IC50 (cell viability)
CN(C)CCNC(=O)c1cccn2c(=O)c3cc4ccccc4cc3nc12 [Bmh-21]	> 10 µM
C=C1C(=O)O[C@H](CCCCCCCC)[C@H]1C(=O)O [C75]	> 10 µM
O=C(Cc1cccc(OC(F)(F)F)c1)Nc1ccc(CCCCc2nnc(NC(=O)Cc3ccccn3)s2)nn1 [CB-839]	0.637 µM
O=NN(CCCl)C(=O)NCCCl [Carmustine]	> 10 µM
O[C@H]1[C@H](O)[C@@H](O)CN2CC[C@H](O)[C@H]12 [Castanospermine]	> 10 µM
O=C(/C=C/c1cccnc1)NCCCCC1CCN(C(=O)c2ccccc2)CC1 [Daporinad]	0.00147 µM
N=C(N)c1ccc(N=NNc2ccc(C(=N)N)cc2)cc1 [Diminazene]	> 10 µM
OCCN(CCO)c1nc(N2CCCCC2)c2nc(N(CCO)CCO)nc(N3CCCCC3)c2n1 [Dipyridamole]	> 10 µM
Cc1cc(O)c2c(c1)C(=O)c1cc(O)cc(O)c1C2=O [Emodin]	> 10 µM
N#Cc1ccc(C2CCCc3cncn32)cc1 (stereo not given) [Fadrozole]	> 10 µM
Cc1nc(-c2ccc(OCC(C)C)c(C#N)c2)sc1C(=O)O [Febuxostat]	> 10 µM

System: ML-2
Experiment: not given
Conditions: 72 h
Summary of the method: as §1

Structure (SMILES)	IC50 (cell viability)
CN(C)CCNC(=O)c1cccn2c(=O)c3cc4ccccc4cc3nc12 [Bmh-21]	0.314 µM
C=C1C(=O)O[C@H](CCCCCCCC)[C@H]1C(=O)O [C75]	> 10 µM
O=C(Cc1cccc(OC(F)(F)F)c1)Nc1ccc(CCCCc2nnc(NC(=O)Cc3ccccn3)s2)nn1 [CB-839]	> 10 µM
O=NN(CCCl)C(=O)NCCCl [Carmustine]	> 10 µM
O[C@H]1[C@H](O)[C@@H](O)CN2CC[C@H](O)[C@H]12 [Castanospermine]	> 10 µM
O=C(/C=C/c1cccnc1)NCCCCC1CCN(C(=O)c2ccccc2)CC1 [Daporinad]	0.00139 µM
N=C(N)c1ccc(N=NNc2ccc(C(=N)N)cc2)cc1 [Diminazene]	> 10 µM
OCCN(CCO)c1nc(N2CCCCC2)c2nc(N(CCO)CCO)nc(N3CCCCC3)c2n1 [Dipyridamole]	> 10 µM
Cc1cc(O)c2c(c1)C(=O)c1cc(O)cc(O)c1C2=O [Emodin]	> 10 µM
N#Cc1ccc(C2CCCc3cncn32)cc1 (stereo not given) [Fadrozole]	> 10 µM
Cc1nc(-c2ccc(OCC(C)C)c(C#N)c2)sc1C(=O)O [Febuxostat]	> 10 µM

System: HEL
Experiment: not given
Conditions: 72 h
Summary of the method: as §1

Structure (SMILES)	IC50 (cell viability)
CN(C)CCNC(=O)c1cccn2c(=O)c3cc4ccccc4cc3nc12 [Bmh-21]	0.331 µM
C=C1C(=O)O[C@H](CCCCCCCC)[C@H]1C(=O)O [C75]	> 10 µM
O=C(Cc1cccc(OC(F)(F)F)c1)Nc1ccc(CCCCc2nnc(NC(=O)Cc3ccccn3)s2)nn1 [CB-839]	> 10 µM
